# Experiments:
# Dipeptidyl peptidase 9 = Dipeptidyl peptidase 9 (Homo sapiens, UniProt Q86TI2); experiment: Inhibition of DPP9
# Dipeptidyl peptidase 4 = Dipeptidyl peptidase 4 (Homo sapiens, UniProt P27487); experiment: Inhibition of DPP4
# Dipeptidyl peptidase 2 = Dipeptidyl peptidase 2 (Homo sapiens, UniProt Q9UHL4); experiment: Inhibition of QPP
# Dipeptidyl peptidase 8 = Dipeptidyl peptidase 8 (Homo sapiens, UniProt Q6V1X1); experiment: Inhibition of DPP8
# [1] = biological target: Voltage-gated inwardly rectifying potassium channel KCNH2 (Homo sapiens, UniProt Q12809); experiment: Inhibition of hERG potassium channel; format: toxicity
# Voltage-gated inwardly rectifying potassium channel KCNH2, sequence (Q12809 whole entry): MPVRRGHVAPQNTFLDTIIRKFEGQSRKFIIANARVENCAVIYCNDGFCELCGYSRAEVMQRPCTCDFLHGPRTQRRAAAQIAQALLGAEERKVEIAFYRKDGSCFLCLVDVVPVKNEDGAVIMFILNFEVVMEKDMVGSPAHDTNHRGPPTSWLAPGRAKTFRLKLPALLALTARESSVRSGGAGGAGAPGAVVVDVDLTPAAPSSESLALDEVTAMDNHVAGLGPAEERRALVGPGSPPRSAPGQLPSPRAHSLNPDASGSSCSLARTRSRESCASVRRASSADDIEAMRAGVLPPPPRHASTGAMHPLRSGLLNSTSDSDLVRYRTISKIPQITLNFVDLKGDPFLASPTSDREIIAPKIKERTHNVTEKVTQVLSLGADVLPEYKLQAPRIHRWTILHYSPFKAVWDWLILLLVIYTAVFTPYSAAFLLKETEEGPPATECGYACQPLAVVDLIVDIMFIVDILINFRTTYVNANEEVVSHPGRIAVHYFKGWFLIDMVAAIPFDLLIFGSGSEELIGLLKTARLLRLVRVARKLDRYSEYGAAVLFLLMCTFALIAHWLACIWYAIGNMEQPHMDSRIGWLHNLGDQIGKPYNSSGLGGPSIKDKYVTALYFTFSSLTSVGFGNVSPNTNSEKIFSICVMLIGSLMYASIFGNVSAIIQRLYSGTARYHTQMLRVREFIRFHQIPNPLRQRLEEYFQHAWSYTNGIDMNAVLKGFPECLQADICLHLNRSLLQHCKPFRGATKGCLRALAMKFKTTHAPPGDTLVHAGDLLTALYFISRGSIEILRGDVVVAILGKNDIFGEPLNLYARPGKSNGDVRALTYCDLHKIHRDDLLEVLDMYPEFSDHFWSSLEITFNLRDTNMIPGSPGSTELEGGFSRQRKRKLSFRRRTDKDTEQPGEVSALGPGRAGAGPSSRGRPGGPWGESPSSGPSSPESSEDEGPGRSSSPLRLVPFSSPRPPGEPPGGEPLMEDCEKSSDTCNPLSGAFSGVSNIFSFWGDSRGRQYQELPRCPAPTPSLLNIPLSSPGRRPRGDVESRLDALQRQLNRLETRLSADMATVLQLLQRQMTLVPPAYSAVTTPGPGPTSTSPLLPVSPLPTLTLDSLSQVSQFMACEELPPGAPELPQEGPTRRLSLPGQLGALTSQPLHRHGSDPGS
# [2] = Oral bioavailability in rat at 1 mg/kg, iv and 2 mg/kg, po; format: ADME, organism-based; settings: in vivo
# [3] = Plasma clearance in rat at 1 mg/kg, iv and 2 mg/kg, po; format: ADME, organism-based
# [4] = Half life in rat at 1 mg/kg, iv and 2 mg/kg, po; format: ADME, organism-based; settings: in vivo
# [5] = Oral bioavailability in dog; format: ADME, organism-based, Canis lupus familiaris; settings: in vivo
# [6] = Half life in dog; format: ADME, organism-based, Canis lupus familiaris; settings: in vivo
# Homo sapiens = organism: Homo sapiens; experiment: Selectivity for DPP4 over QPP
# Dipeptidyl peptidase 4, sequence (P27487 whole entry): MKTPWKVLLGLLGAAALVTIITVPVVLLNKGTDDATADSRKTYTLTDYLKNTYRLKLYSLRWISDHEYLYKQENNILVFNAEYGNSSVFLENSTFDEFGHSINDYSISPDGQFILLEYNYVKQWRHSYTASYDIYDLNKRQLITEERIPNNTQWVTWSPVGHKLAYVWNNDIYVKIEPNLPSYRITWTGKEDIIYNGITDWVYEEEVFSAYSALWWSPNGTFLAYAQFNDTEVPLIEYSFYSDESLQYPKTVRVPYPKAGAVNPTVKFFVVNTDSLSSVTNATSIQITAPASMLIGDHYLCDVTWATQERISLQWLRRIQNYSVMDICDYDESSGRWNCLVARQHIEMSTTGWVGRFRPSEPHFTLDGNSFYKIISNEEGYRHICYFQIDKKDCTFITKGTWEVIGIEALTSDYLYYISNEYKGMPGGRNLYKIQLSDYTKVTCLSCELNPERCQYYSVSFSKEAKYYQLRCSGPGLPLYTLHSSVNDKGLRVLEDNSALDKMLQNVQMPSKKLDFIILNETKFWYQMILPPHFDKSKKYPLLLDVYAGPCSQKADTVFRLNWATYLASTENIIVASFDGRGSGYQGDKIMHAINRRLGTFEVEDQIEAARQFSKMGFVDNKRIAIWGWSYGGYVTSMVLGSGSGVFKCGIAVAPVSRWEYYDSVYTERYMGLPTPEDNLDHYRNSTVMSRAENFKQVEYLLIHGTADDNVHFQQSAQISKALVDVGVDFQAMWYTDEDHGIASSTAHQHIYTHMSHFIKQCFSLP
# Dipeptidyl peptidase 8, sequence (Q6V1X1 whole entry): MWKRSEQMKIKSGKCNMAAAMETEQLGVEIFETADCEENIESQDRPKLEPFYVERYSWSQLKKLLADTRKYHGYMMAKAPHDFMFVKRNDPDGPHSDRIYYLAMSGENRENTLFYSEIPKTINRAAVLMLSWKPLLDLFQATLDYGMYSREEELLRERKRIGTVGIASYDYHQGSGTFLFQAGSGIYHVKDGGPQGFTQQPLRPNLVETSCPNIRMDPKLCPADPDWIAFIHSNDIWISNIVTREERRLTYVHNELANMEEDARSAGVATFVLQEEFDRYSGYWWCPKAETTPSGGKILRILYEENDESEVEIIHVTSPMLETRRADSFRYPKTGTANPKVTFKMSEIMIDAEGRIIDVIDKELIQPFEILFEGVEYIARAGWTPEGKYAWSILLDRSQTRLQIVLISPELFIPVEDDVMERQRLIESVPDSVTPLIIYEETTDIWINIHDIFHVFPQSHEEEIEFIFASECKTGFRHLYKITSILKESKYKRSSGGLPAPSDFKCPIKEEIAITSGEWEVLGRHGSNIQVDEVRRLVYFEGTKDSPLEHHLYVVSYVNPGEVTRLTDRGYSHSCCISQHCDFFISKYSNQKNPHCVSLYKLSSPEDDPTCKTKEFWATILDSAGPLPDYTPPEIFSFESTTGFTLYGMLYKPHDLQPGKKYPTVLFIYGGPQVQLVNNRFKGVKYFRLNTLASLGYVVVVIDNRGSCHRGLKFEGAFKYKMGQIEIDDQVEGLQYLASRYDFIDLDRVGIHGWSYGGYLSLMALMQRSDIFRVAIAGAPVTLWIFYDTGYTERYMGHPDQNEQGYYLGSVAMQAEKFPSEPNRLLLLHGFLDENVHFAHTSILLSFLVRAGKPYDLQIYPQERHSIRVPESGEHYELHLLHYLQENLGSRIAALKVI
# Dipeptidyl peptidase 9, sequence (Q86TI2 whole entry): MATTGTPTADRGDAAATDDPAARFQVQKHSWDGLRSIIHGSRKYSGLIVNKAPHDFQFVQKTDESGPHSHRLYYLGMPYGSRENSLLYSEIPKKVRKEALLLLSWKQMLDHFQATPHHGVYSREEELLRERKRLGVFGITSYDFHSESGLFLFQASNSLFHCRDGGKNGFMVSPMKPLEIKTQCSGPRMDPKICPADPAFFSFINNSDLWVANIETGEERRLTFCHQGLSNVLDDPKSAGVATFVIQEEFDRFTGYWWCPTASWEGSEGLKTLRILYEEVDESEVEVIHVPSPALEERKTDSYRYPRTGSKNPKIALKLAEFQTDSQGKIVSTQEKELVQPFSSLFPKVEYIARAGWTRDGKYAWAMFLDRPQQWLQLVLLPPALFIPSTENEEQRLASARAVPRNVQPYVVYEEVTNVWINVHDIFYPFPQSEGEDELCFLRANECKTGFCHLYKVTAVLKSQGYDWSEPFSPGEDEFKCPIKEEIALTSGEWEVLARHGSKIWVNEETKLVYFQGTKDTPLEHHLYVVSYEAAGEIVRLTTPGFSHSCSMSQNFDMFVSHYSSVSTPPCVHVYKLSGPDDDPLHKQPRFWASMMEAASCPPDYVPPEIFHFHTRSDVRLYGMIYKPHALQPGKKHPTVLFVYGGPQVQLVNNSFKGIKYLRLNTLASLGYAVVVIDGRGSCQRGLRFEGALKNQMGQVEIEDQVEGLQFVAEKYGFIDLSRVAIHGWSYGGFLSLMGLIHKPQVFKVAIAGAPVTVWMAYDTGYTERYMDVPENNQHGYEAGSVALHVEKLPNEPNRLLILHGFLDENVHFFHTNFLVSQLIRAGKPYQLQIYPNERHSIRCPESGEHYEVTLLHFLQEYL
IC50 (Dipeptidyl peptidase 9) [µM],IC50 (Dipeptidyl peptidase 4) [µM],IC50 (Dipeptidyl peptidase 2) [µM],IC50 (Dipeptidyl peptidase 8) [µM],bioavailability [2] [%],clearance [3] [mL/min/kg],half-life [4] [h],bioavailability [5] [%],half-life [6] [h],Ratio IC50 (Homo sapiens),SMILES,IC50 [1] [µM]
> 100,1.61,6,> 100,–,–,–,–,–,–,C[C@H](c1nc(-c2ccc(C(F)(F)F)cc2)no1)[C@H](N)C(=O)N1CCCC1,–
> 100,–,–,> 100,–,–,–,–,–,–,C[C@H](c1nc(-c2ccc(S(C)(=O)=O)cc2Cl)no1)[C@H](N)C(=O)N1CC[C@H](F)C1,–
> 100,–,–,> 100,–,–,–,–,–,–,CS(=O)(=O)c1ccc(-c2noc([C@@H](CC3CC3)[C@H](N)C(=O)N3CC[C@H](F)C3)n2)c(Cl)c1,–
> 100,0.52,5.4,> 100,–,–,–,–,–,–,C[C@H](c1nc(-c2ccc(NS(C)(=O)=O)cc2)no1)[C@H](N)C(=O)N1CCCC1,–
> 100,–,–,> 100,–,–,–,–,–,–,CS(=O)(=O)c1ccc(-c2noc([C@@H](CCO)[C@H](N)C(=O)N3CC[C@H](F)C3)n2)c(Cl)c1,–
> 100,0.56,0.85,> 100,–,–,–,–,–,–,C[C@H](c1nnc(-c2ccc(Cl)cc2Cl)o1)[C@H](N)C(=O)N1CCCC1,–
> 100,–,–,> 100,35,13.8,2.71,–,–,–,C[C@H](c1nc(-c2ccc(Cl)cc2Cl)no1)[C@H](N)C(=O)N1CCCC1.O=C(O)C(F)(F)F,36.7
> 100,0.008,1.4,> 100,–,–,–,–,–,–,C[C@H](c1nc(-c2ccc(NS(C)(=O)=O)cc2Cl)no1)[C@H](N)C(=O)N1CCCC1,–
> 100,–,–,> 100,–,–,–,–,–,–,C[C@H](c1nc(-c2ccc(S(C)(=O)=O)cc2)no1)[C@H](N)C(=O)N1CCCC1,–
> 100,19.7,5.7,> 100,–,–,–,–,–,–,C[C@H](c1nc(-c2ccccc2)no1)[C@H](N)C(=O)N1CCCC1,–
> 100,0.031,2.92,> 100,–,–,–,–,–,–,Cc1cc(S(C)(=O)=O)ccc1-c1noc([C@@H](CC2CC2)[C@H](N)C(=O)N2CC[C@H](F)C2)n1,–
> 100,0.19,26.8,> 100,–,–,–,–,–,–,C[C@H](c1nc(-c2ccc(S(N)(=O)=O)cc2)no1)[C@H](N)C(=O)N1CCCC1,–
> 100,0.16,1.3,> 100,–,–,–,–,–,–,C[C@H](c1nc(-c2ccc(Br)cc2Cl)no1)[C@H](N)C(=O)N1CCCC1,–
> 100,0.33,24.4,> 100,–,–,–,–,–,–,C[C@H](c1nc(-c2ccc(S(=O)(=O)C(F)(F)F)cc2)no1)[C@H](N)C(=O)N1CCCC1,–
> 100,0.99,2.2,> 100,–,–,–,–,–,–,C[C@H](c1nc(-c2ccccc2Cl)no1)[C@H](N)C(=O)N1CCCC1,–
> 100,–,–,> 100,36,18.7,1.3,95,1.75,–,CS(=O)(=O)c1ccc(-c2noc([C@@H](CC3CC3)[C@H](N)C(=O)N3CC[C@H](F)C3)n2)c(F)c1.O=C(O)C(F)(F)F,58.5
> 100,0.043,14.1,> 100,–,–,–,–,–,> 320,C[C@H](c1nc(-c2ccc(S(C)(=O)=O)cc2F)no1)[C@H](N)C(=O)N1CCCC1,–
> 100,–,–,> 100,27,6,0.82,–,–,–,C[C@H](c1nc(-c2ccc(S(C)(=O)=O)cc2Cl)no1)[C@H](N)C(=O)N1CCCC1,–

IC50 (Dipeptidyl peptidase 9) [µM],IC50 (Dipeptidyl peptidase 4) [µM],IC50 (Dipeptidyl peptidase 2) [µM],IC50 (Dipeptidyl peptidase 8) [µM],bioavailability [2] [%],clearance [3] [mL/min/kg],half-life [4] [h],bioavailability [5] [%],half-life [6] [h],Ratio IC50 (Homo sapiens),SMILES,IC50 [1] [µM]
> 100,0.83,3,> 100,–,–,–,–,–,–,C[C@H](c1nc(-c2ccc(F)cc2Cl)no1)[C@H](N)C(=O)N1CCCC1,–
> 100,0.019,0.16,> 100,–,–,–,–,–,–,C[C@H](c1nc(-c2ccc(NS(C)(=O)=O)cc2Cl)no1)[C@H](N)C(=O)N1CCC(F)(F)C1,–
> 100,12.4,2.5,> 100,–,–,–,–,–,–,C[C@H](c1nc(-c2ccccc2OC(F)(F)F)no1)[C@H](N)C(=O)N1CCCC1,–
> 100,4.59,8.1,> 100,–,–,–,–,–,–,C[C@H](c1nc(-c2ccc(F)cc2F)no1)[C@H](N)C(=O)N1CCCC1,–
> 100,0.019,1.7,> 100,–,–,–,–,–,–,C[C@H](c1nc(-c2ccc(NS(C)(=O)=O)cc2Cl)no1)[C@H](N)C(=O)N1CC[C@@H](F)C1,–
> 100,3.05,5.41,> 100,–,–,–,–,–,–,C[C@H](c1n[nH]c(-c2ccc(Cl)cc2Cl)n1)[C@H](N)C(=O)N1CCCC1,–
> 100,4.82,1.8,> 100,–,–,–,–,–,–,C[C@H](c1nc(-c2ccccc2C(F)(F)F)no1)[C@H](N)C(=O)N1CCCC1,–
> 100,1.79,5.2,> 100,–,–,–,–,–,–,C[C@H](c1nc(-c2ccc(OC(F)(F)F)cc2)no1)[C@H](N)C(=O)N1CCCC1,–
> 100,1.83,1.05,> 100,–,–,–,–,–,–,C[C@H](c1nc(-c2ccc(Cl)cc2Cl)co1)[C@H](N)C(=O)N1CCCC1,–
> 100,4.79,4.5,> 100,–,–,–,–,–,–,C[C@H](c1nc(-c2ccccc2F)no1)[C@H](N)C(=O)N1CCCC1,–
> 100,1.21,4.2,> 100,–,–,–,–,–,–,C[C@H](c1noc(-c2ccc(Cl)cc2Cl)n1)[C@H](N)C(=O)N1CCCC1,–
> 100,0.019,2.57,> 100,–,–,–,–,–,–,C[C@H](c1nc(-c2ccc(NS(C)(=O)=O)cc2Cl)no1)[C@H](N)C(=O)N1CC[C@H](F)C1,–
> 100,7.36,2.5,> 100,–,–,–,–,–,–,C[C@H](c1nc(-c2cc(Cl)cc(Cl)c2)no1)[C@H](N)C(=O)N1CCCC1,–
> 100,15.6,4.3,> 100,–,–,–,–,–,–,C[C@H](c1nc(-c2cccc(C(F)(F)F)c2)no1)[C@H](N)C(=O)N1CCCC1,–
> 100,3.82,3.8,> 100,–,–,–,–,–,–,C[C@H](c1nc(-c2ccc(Cl)cc2)no1)[C@H](N)C(=O)N1CCCC1,–
> 100,1.82,1,> 100,–,–,–,–,–,–,C[C@H](c1nc(-c2ccccc2C(F)F)no1)[C@H](N)C(=O)N1CCCC1,–
> 100,0.013,3.7,> 100,–,–,–,–,–,–,CC(C)C[C@H](c1nc(-c2ccc(S(C)(=O)=O)cc2Cl)no1)[C@H](N)C(=O)N1CC[C@H](F)C1,–
> 100,0.052,20.4,> 100,49,11.2,1.8,–,–,–,CS(=O)(=O)c1ccc(-c2noc([C@@H](CC3CC3)[C@H](N)C(=O)N3CC[C@H](F)C3)n2)cc1.O=C(O)C(F)(F)F,–

# — ChEMBL document CHEMBL1137276, “Discovery of potent, selective, and orally bioavailable oxadiazole-based dipeptidyl peptidase IV inhibitors” (Bioorg Med Chem Lett, 2006)
